The nature of assay [1]: Inhibition of Bacillus anthracis TrxR.
Assay [2] has as its target Histone deacetylase 5 (Homo sapiens, UniProt Q9UQL6). The experiment in a line: Inhibition of human recombinant HDAC5 using acetyl-Lys(trifluoroacetyl)-AMC substrate by fluorescence based assay.
The species entered for assay [3] is Rattus norvegicus. The experiment in a line: Effect on SOD activity in brain of rat with ischemia/reperfusion injury assessed as enzyme activity per mg protein. Format: functional.
Assay [4] deals with Cryptosporidium parvum. The experiment in a line: Substrate activity at Cryptosporidium parvum glucose 6-phosphate isomerase.
Assay [5] is described as follows: Inhibition of inositol monophosphatase (unknown origin). Details: species or system Homo sapiens.
The nature of assay [6]: Inhibition of Candida albicans H+-ATPase.
Assay [7] concerns the target T1, Protein deacetylase HDAC6 (Homo sapiens, UniProt Q9UBN7).
T1 sequence (Q9UBN7 whole entry): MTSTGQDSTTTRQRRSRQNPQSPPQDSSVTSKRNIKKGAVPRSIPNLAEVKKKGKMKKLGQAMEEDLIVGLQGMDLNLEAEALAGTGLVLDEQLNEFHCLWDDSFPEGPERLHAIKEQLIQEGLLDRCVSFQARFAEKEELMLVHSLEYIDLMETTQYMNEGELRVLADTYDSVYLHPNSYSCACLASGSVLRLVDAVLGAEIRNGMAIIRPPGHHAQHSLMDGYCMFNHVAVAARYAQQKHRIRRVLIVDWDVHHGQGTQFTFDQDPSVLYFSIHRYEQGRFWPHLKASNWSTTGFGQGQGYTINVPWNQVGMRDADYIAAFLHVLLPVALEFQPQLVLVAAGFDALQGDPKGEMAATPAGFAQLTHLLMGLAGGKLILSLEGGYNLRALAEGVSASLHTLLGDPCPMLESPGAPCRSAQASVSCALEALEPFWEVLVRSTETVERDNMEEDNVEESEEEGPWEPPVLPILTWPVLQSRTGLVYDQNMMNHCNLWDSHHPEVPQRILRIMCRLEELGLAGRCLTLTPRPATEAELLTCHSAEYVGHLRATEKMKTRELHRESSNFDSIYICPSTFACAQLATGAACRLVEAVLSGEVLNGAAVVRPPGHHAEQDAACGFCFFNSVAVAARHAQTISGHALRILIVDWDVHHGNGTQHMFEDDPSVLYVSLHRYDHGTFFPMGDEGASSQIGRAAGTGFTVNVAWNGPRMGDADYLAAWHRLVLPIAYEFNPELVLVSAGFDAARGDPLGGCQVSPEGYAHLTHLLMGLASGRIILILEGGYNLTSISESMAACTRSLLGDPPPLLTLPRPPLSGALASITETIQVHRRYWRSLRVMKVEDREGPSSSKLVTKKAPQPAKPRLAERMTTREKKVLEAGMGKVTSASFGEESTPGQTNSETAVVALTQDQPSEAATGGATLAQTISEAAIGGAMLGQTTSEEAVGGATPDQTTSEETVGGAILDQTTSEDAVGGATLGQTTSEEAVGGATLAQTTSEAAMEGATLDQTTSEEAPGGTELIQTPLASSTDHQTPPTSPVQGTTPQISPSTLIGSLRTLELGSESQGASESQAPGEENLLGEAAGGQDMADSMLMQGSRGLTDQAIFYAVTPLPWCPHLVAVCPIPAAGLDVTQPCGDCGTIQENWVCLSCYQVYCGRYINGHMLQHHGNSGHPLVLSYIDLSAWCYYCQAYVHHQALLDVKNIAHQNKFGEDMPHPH
As to the kind of experiment: Inhibition of human recombinant HDAC6 using RHKKAc-AMC substrate by fluorescence based assay.

Assay [8] has as its target Histone deacetylase 9 (Homo sapiens, UniProt Q9UKV0). The experiment in a line: Inhibition of human recombinant HDAC9 using acetyl-Lys(trifluoroacetyl)-AMC substrate by fluorescence based assay.
Assay [9] is described as follows: Inhibition of Aspergillus fumigatus TrxR.

Each structure is given as a SMILES string.

The values that follow come from ChEMBL document CHEMBL4321827, “Development and Therapeutic Potential of Selenazo Compounds” (J Med Chem, 2020).

The term IC50 denotes the point on the concentration scale where inhibition reaches its midpoint. A word on the Km: it is the substrate concentration at which the rate is half of its maximum. The Ki is the dissociation constant of the complex between target and ligand, obtained from inhibition or displacement. A lower Ki goes with a stronger hold on the target.

Chain of Histone deacetylase 9 (Q9UKV0 whole entry): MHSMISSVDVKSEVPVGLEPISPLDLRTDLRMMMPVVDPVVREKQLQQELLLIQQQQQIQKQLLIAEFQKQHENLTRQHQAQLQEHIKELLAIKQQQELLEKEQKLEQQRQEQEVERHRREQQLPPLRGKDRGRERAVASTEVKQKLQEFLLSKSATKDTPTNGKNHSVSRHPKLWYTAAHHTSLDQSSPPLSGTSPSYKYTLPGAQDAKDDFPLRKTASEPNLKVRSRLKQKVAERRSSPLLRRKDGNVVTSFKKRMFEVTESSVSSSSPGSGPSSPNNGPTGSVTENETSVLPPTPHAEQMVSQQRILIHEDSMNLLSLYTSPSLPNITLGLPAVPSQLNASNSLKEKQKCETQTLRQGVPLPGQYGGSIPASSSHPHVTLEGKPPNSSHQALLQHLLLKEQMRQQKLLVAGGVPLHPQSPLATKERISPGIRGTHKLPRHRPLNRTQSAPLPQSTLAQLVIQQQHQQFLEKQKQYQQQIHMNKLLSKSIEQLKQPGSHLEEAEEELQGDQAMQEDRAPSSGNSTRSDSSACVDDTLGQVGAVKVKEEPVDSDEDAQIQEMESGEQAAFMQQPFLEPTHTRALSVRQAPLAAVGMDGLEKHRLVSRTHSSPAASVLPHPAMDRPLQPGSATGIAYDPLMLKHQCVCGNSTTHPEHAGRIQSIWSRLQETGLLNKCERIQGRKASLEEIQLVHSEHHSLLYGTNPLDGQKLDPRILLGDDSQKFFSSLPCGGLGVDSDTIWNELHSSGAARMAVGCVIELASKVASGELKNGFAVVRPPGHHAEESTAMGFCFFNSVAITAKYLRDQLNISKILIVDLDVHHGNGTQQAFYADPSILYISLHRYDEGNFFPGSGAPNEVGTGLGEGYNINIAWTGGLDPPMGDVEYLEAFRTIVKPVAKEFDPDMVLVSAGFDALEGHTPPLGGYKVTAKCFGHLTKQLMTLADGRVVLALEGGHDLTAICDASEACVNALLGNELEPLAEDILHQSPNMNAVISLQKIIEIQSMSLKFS
Chain of Histone deacetylase 5 (Q9UQL6 whole entry, the tested form may be a part): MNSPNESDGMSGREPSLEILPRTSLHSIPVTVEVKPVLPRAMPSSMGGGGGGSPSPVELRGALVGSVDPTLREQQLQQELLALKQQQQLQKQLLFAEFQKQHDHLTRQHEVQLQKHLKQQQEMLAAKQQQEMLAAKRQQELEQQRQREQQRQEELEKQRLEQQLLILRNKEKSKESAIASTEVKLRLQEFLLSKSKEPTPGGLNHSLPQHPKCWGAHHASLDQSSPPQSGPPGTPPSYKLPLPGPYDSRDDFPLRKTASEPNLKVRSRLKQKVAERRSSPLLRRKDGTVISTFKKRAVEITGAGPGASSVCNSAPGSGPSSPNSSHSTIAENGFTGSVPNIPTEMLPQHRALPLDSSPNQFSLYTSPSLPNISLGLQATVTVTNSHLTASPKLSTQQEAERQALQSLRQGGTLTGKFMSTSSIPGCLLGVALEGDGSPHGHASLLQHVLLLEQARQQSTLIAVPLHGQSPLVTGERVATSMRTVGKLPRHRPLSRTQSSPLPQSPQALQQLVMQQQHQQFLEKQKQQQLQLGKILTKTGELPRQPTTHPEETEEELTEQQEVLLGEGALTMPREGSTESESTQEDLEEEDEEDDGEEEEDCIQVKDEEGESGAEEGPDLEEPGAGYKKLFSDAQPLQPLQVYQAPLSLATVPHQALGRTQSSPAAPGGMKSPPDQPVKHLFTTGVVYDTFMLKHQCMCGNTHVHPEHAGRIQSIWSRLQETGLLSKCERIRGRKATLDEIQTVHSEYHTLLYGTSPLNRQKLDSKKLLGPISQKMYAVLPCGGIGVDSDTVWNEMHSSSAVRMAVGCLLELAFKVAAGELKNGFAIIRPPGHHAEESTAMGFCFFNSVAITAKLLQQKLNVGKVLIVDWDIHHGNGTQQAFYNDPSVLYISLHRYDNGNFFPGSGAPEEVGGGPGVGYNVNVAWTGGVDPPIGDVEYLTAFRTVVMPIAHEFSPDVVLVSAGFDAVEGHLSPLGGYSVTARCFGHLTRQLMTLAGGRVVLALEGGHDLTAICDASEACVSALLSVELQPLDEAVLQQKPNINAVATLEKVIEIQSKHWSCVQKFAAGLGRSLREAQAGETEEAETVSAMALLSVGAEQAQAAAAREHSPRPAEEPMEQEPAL

For `O=c1c2ccccc2[se]n1-c1ccccc1` [EBSELEN], the IC50 in assay [1] was 1 µM; in assay [2] it was 3.4 µM; in [5], 1.5 µM; in assay [6] it was 3.9 µM; in [7] it was 6.9 µM; in assay [8] it was 3.7 µM. The Activity in [3] is on record as 0.105 U. In addition, the Km in assay [4] was determined as 309 µM. This molecule also registered a Ki in [9] of 0.22 µM.
